# Measurements reported in patent publication US10160755B2 (Plexxikon Inc., priority 2015, dated 2018).
# Target: T1, FLT3-D835Y (Homo sapiens, UniProt P36888, D835Y)
# T1 construct: purchased Invitrogen PV3967
# T1 sequence (P36888 27-993 D835Y): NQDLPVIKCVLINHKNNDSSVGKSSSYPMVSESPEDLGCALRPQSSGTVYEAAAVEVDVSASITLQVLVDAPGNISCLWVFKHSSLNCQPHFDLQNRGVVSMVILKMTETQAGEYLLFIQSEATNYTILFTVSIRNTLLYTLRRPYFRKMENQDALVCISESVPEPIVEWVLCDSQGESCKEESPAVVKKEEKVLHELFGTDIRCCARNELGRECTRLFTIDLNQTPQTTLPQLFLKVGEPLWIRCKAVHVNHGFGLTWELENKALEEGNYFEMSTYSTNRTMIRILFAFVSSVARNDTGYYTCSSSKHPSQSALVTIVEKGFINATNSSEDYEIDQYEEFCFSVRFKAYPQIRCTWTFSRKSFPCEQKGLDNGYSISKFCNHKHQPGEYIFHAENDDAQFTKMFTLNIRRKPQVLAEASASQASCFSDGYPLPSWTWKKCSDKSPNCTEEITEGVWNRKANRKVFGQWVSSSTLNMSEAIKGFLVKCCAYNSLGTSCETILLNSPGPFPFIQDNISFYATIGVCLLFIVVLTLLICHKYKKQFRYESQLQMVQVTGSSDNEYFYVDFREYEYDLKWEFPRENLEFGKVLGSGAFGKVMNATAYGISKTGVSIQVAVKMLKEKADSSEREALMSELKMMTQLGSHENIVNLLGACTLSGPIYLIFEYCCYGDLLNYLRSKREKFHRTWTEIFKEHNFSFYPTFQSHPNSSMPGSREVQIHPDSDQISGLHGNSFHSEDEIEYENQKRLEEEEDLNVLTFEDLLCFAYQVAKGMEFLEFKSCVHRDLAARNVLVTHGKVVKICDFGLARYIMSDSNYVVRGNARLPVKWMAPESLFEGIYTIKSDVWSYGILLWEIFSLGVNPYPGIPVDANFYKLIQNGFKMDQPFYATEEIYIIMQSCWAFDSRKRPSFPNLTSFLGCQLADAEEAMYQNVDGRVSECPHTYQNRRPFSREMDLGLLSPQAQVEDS
# Assay: FLT3-D835Y biochemical kinase assay (AlphaScreen)
# Excerpt: (§1) In order to determine the effect of compounds on FLT3 catalytic activity, kinase assays using recombinant enzymes and AlphaScreen® technology have been established. When the kinases are catalytically active, they phosphorylate a biotinylated peptide substrate on tyrosine residues. Using AlphaScreen® technology, the ability of the compounds to affect the catalytic activity of the kinases can be measured quantitatively. The peptide substrate is immobilized by the AlphaScreen® Streptavidin Donor beads and, upon phosphorylation by a tyrosine kinase, can bind to AlphaScreen® Anti-Phosphotyrosine (PY20) Acceptor beads. Upon excitation of these beads with laser light at 680 nm, singlet oxygen is produced. This singlet oxygen is rapidly quenched, unless the AlphaScreen® Anti-Phosphotyrosine (PY20) Acceptor beads are in close proximity, in which case a proximity signal can be measured at 580 nm. In the presence of catalytic activity, there is a very strong proximity signal. Selective kinase inhibitors affect a decrease in this proximity signal through a decrease in tyrosine phosphorylation of the peptide substrate.
# (§2) Substrate • Poly (Glu4-Tyr) Peptide, biotin conjugate [Biotin-GG(EEEEY)10EE (SEQ ID NO: 4)] • UBI/Millipore #12-440 • Final concentration=30 nM
# (§3) Adenosine Triphosphate (ATP) • Sigma #A-3377 • Final concentration for IC50 determination=10 μM (FLT3-D835Y) or 100 μM (FLT3 or FLT3-ITD) • Detection Reagent • AlphaScreen® Phosphotyrosine (PY20) Assay Kit • Perkin-Elmer #6760601M • Final concentration=10 μg/mL
# (§4) Centrifuge 1 minute, shake to mix, and incubate as follows:
# (§5) • Mix Streptavidin Donor beads at 6× final concentration in Stop/Detection buffer. • Add 5 μL Streptavidin Donor beads to the reaction plate. Centrifuge 1 minute, shake to mix, and incubate at room temperature for 20 minutes. • Mix Anti-Phosphotyrosine (PY20) Acceptor beads at 6× final concentration in Stop/Detection buffer. • Add 5 μL Anti-Phosphotyrosine (PY20) beads to the reaction plate. • Centrifuge 1 minute, shake to mix, and incubate at room temperature for 60 minutes. • Read plate on Wallac EnVision™ 2103 Multilabel Reader. In Vivo Model System Testing
row,IC50,SMILES
1,0.0001 to 1 µM,"COc1cc(-c2cnc3[nH]cc(-c4ccc5ncn(-c6ccc(F)cc6)c5c4)c3c2)cc(OC)n1 [P-198, 5-(2,6-dimethoxy-4-pyridyl)-3-[3-(4-fluorophenyl)benzimidazol-5-yl]-1H-pyrrolo[2,3-b]pyridine]"
2,0.0001 to 1 µM,"Cn1cnc2ccc(-c3c[nH]c4ncc(-c5ccc(S(=O)(=O)N6CCCC6)cc5)nc34)cc21 [P-148, 7-(3-methylbenzimidazol-5-yl)-2-(4-pyrrolidin-1-ylsulfonylphenyl)-5H-pyrrolo[2,3-b]pyrazine]"
3,0.0001 to 1 µM,"N#Cc1cc(-c2cnc3[nH]cc(-c4ccc5ncn(-c6ccc(F)cc6)c5c4)c3c2)ccc1F [P-209, 2-fluoro-5-[3-[3-(4-fluorophenyl)benzimidazol-5-yl]-1H-pyrrolo[2,3-b]pyridin-5-yl]benzonitrile]"
4,1 to 10 µM,"COc1cnc2[nH]cc(-c3ccc4[nH]ncc4c3)c2c1 [P-003, 3-(1H-indazol-5-yl)-5-methoxy-1H-pyrrolo[2,3-b]pyridine]"
5,0.0001 to 1 µM,"COc1cc(-c2cnc3[nH]cc(-c4ccc5ncsc5c4)c3n2)ccc1C#N [P-183, 4-[7-(1,3-benzothiazol-6-yl)-5H-pyrrolo[2,3-b]pyrazin-2-yl]-2-methoxy-benzonitrile]"
6,0.0001 to 1 µM,"CC(C)(C)n1cnc2ccc(-c3c[nH]c4ncc(NS(=O)(=O)c5cccc(C#N)c5)cc34)cc21 [P-233, N-[3-(3-tert-butylbenzimidazol-5-yl)-1H-pyrrolo[2,3-b]pyridin-5-yl]-3-cyano-benzenesulfonamide]"
7,0.0001 to 1 µM,"CC(C)S(=O)(=O)Nc1cccc(-c2cnc3[nH]cc(-c4ccc5ncsc5c4)c3n2)c1 [P-184, N-[3-[7-(1,3-benzothiazol-6-yl)-5H-pyrrolo[2,3-b]pyrazin-2-yl]phenyl]propane-2-sulfonamide]"
8,0.0001 to 1 µM,"COc1cc(-c2cnc3[nH]cc(-c4ccc5ncsc5c4)c3n2)cc(OC)n1 [P-172, 6-[2-(2,6-dimethoxy-4-pyridyl)-5H-pyrrolo[2,3-b]pyrazin-7-yl]-1,3-benzothiazole]"
9,0.0001 to 1 µM,"Cn1cnc2ccc(-c3c[nH]c4ncc(-c5ccc(Cl)c(C#N)c5)cc34)cc21 [P-140, 2-chloro-5-[3-(3-methylbenzimidazol-5-yl)-1H-pyrrolo[2,3-b]pyridin-5-yl]benzonitrile]"
10,0.0001 to 1 µM,"COc1cc(-c2cnc3[nH]c(C)c(-c4ccc5ncn(C)c5c4)c3c2)ccn1 [P-112, 5-(2-methoxy-4-pyridyl)-2-methyl-3-(3-methylbenzimidazol-5-yl)-1H-pyrrolo[2,3-b]pyridine]"
11,0.0001 to 1 µM,"Cn1cc(-c2cnc3[nH]cc(-c4ccc5ncsc5c4)c3n2)ccc1=O [P-182, 5-[7-(1,3-benzothiazol-6-yl)-5H-pyrrolo[2,3-b]pyrazin-2-yl]-1-methyl-pyridin-2-one]"
12,0.0001 to 1 µM,"O=S(=O)(c1cccc(-c2cnc3[nH]cc(-c4ccc5ncsc5c4)c3n2)c1)N1CCCC1 [P-171, 6-[2-(3-pyrrolidin-1-ylsulfonylphenyl)-5H-pyrrolo[2,3-b]pyrazin-7-yl]-1,3-benzothiazole]"
13,0.0001 to 1 µM,"O=S(=O)(c1ccc(-c2cnc3[nH]cc(-c4ccc5ncsc5c4)c3n2)cc1)N1CCCC1 [P-160, 6-[2-(4-pyrrolidin-1-ylsulfonylphenyl)-5H-pyrrolo[2,3-b]pyrazin-7-yl]-1,3-benzothiazole]"
14,0.0001 to 1 µM,"COc1cc(-c2cnc3[nH]cc(-c4ccc5ncn(-c6ccc(F)cc6)c5c4)c3n2)cc(OC)n1 [P-205, 2-(2,6-dimethoxy-4-pyridyl)-7-[3-(4-fluorophenyl)benzimidazol-5-yl]-5H-pyrrolo[2,3-b]pyrazine]"

# Target: T2, FLT3-ITD (Homo sapiens, UniProt P36888)
# T2 construct: FLT3-ITD; Invitrogen #PV6190
# T2 sequence (P36888 1-993): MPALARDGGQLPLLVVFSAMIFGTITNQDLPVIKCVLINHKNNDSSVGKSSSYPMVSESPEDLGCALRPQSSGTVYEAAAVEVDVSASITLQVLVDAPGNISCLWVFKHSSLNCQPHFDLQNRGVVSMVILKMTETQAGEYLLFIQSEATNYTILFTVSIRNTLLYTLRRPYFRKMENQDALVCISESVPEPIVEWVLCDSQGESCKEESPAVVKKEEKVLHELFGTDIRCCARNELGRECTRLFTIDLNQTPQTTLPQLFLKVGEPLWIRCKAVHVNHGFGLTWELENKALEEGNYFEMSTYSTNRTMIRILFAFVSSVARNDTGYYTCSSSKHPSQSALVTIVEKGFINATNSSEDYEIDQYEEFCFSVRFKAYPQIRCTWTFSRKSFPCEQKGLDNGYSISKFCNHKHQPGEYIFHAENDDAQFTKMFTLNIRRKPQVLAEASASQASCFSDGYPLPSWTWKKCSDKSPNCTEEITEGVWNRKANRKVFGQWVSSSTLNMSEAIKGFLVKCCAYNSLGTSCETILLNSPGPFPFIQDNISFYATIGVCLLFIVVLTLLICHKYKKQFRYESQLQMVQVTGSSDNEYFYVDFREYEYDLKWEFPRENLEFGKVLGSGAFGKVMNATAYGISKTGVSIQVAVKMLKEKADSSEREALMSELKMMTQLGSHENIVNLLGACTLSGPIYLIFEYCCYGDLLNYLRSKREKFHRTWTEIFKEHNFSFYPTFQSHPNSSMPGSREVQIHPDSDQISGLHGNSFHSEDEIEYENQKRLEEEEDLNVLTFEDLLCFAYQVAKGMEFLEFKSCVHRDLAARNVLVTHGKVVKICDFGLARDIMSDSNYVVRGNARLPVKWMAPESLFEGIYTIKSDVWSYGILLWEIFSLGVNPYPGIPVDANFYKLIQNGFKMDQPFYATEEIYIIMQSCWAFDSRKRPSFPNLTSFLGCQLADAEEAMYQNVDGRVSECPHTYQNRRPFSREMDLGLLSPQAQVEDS
# Assay: FLT3-ITD biochemical kinase assay (AlphaScreen)
# Excerpt: as §1, §2, §3, §4, §5
row,IC50,SMILES
1,0.0001 to 1 µM,"Cc1ncc(-c2cnc3[nH]cc(-c4ccc5ncn(C(C)(C)C)c5c4)c3c2)cn1 [P-395, 1-tert-butyl-6-[5-(2-methylpyrimidin-5-yl)-1H-pyrrolo[2,3-b]pyridin-3-yl]benzimidazole]"
2,0.0001 to 1 µM,"Cc1ncc(-c2cnc3[nH]cc(-c4ccc5ncn(C(C)(C)C)c5c4)c3c2)cc1C#N [P-391, 5-[3-(3-tert-butylbenzimidazol-5-yl)-1H-pyrrolo[2,3-b]pyridin-5-yl]-2-methyl-pyridine-3-carbonitrile]"
3,0.0001 to 1 µM,"CC(C)(C)n1cnc2ccc(-c3c[nH]c4ncc(-c5cncc(NS(C)(=O)=O)c5)cc34)cc21 [P-371, N-[5-[3-(3-tert-butylbenzimidazol-5-yl)-1H-pyrrolo[2,3-b]pyridin-5-yl]-3-pyridyl]methanesulfonamide]"
4,0.0001 to 1 µM,"CC(C)(C)n1cnc2ccc(-c3c[nH]c4ncc(-c5cnc(N6CCC6)nc5)cc34)cc21 [P-398, 5-[2-(azetidin-1-yl)pyrimidin-5-yl]-3-(3-tert-butylbenzimidazol-5-yl)-1H-pyrrolo[2,3-b]pyridine]"
5,0.0001 to 1 µM,"Cc1ncc(-c2cnc3[nH]cc(-c4ccc5ncn(C(C)(C)C)c5c4)c3c2)cc1F [P-392, 1-tert-butyl-6-[5-(5-fluoro-6-methyl-3-pyridyl)-1H-pyrrolo[2,3-b]pyridin-3-yl]benzimidazole]"
6,0.0001 to 1 µM,"CC(C)(C)n1cnc2ccc(-c3c[nH]c4ncc(-c5cncnc5)cc34)cc21 [P-399, 1-tert-butyl-6-(5-pyrimidin-5-yl-1H-pyrrolo[2,3-b]pyridin-3-yl)benzimidazole]"
7,0.0001 to 1 µM,"CC(C)(C)n1cnc2ccc(-c3c[nH]c4ncc(-c5cnc(N)nc5)cc34)cc21 [P-397, 5-[3-(3-tert-butylbenzimidazol-5-yl)-1H-pyrrolo[2,3-b]pyridin-5-yl]pyrimidin-2-amine]"
8,0.0001 to 1 µM,"CC(C)(C)n1cnc2ccc(-c3c[nH]c4ncc(-c5cccc(OCC(=O)O)c5)cc34)cc21 [P-374, 2-[3-[3-(3-tert-butylbenzimidazol-5-yl)-1H-pyrrolo[2,3-b]pyridin-5-yl]phenoxy]acetic acid]"
